Experimental data reported in patent publication US20220062299A1, “USE OF GLUCOCORTICOID STEROIDS IN PREVENTING AND TREATING CONDITIONS OF MUSCLE WASTING, AGING AND METABOLIC DISORDER” (NORTHWESTERN UNIVERSITY, priority 2018, published 2022).

Assays:
Dysf-null mice = experiment: Body weight, muscle mass, muscle function, plethysmography, echocardiography, Dysf-null mice, 32 weeks; assay type: in vivo, mouse; conditions: weekly prednisone
Protocol: Histology. Excised tissues (muscles, omental fat, heart) were placed in 10% formaldehyde (Cat #245-684; Fisher Scientific, Waltham, Mass.) for histologic processing. Seven μm sections from the center of paraffin-embedded muscles were stained with hematoxylin and eosin (H&E; cat #12013B, 1070C; Newcomer Supply, Middleton, Wis.) and Masson's trichrome (Cat #HT-15; Sigma-Aldrich; St. Louis, Mo.). Myofiber/adipocyte CSA quantitation was conducted on 400 myofibers/adipocytes per tissue per mouse. Imaging was performed using a Zeiss Axio Observer A1 microscope, using 10× and 20× (short-range) objectives. Brightfield pictures were acquired via Gryphax software (version 1.0.6.598; Jenoptik, Jena, Germany). Area quantitation was performed by means of ImageJ (Schneider et al., 2012). Sample processing, imaging and CSA quantitation were conducted blinded to treatment groups.
Muscle function, whole-body plethysmography, echocardiography. Forelimb grip strength was monitored using a meter (Cat #1027SM; Columbus Instruments, Columbus, Ohio) blinded to treatment groups. Animals performed ten pulls with 5 seconds rest on a flat surface between pulls. Immediately before sacrifice, in situ tetanic force from tibialis anterior muscle was measured using a Whole Mouse Test System (Cat #1300A; Aurora Scientific, Aurora, ON, Canada) with a 1N dual-action lever arm force transducer (3000-LR, Aurora Scientific, Aurora, ON, Canada) in anesthetized animals (0.8 I/min of 1.5% isoflurane in 100% O2). […] Time of contraction was assessed as time to max tetanic value within the 0.0-0.5 sec range of each tetanic contraction, while time of relaxation was assessed as time to 90% min tetanic value within the 0.5-0.8 sec range of every tetanus. […] Data was recorded for a total of 15 minutes broken into 3 consecutive 5-minute periods. […] Cardiac function was assessed by echocardiography, which was conducted under anesthesia (0.8 L/min of 1.5% vaporized isoflurane in 100% O2) on mice between 2 and 5 days before sacrifice. […]

[1] = tested on: Wildtype (WT) mice fed high-fat chow; experiment: Diet-induced obesity, wildtype mice on high-fat chow, 8 weeks; assay type: in vivo, mouse
Protocol: Glucose was measured in blood (first drop from tail venipuncture) or serum (5 μl of 1:2 dilution) with an AimStrip Plus glucometer system (Germaine Laboratories, San Antonio, Tex.) and expressed as mg/dl values. Lactate was measured in blood (second drop from tail venipuncture) or serum (5 μl of 1:2 dilution) with a Lactate Plus reader (Nova Biomedical, Waltham, Mass.) and expressed as mM values. Fasting glycemia was measured in mice after 4 hours fasting (7 AM-11 AM). Glucose, insulin and pyruvate tolerance tests were conducted after 4 hours fasting in individual cages immediately after baseline fasting glucose monitoring. Mice were injected with either 1 g/kg glucose (#D8375-1 g; Millipore Sigma, St Louis, Mo.), or 0.5 U/kg insulin (#12585014; Thermo Fisher, Waltham, Mass.), or 2.5 g/kg pyruvate (#P5280-25 g; Millipore Sigma, St Louis, Mo.) in 200 μl intraperitoneal injections, and glucose was then monitored by tail venipuncture at 10 min, 20 min, 30 min, 60 min, 120 min after injection. All glucose and pyruvate tolerance tests were conducted blinded to treatment groups.
MRI scan. Magnetic resonance imaging (MRI) scans to determine fat and lean mass ratios (% of total body weight) were conducted in non-anesthetized, non-fasted mice at 2 PM using the EchoMRI-100H Whole Body Composition analyzer (EchoMRI, Houston, Tex.). Mice were weighed immediately prior to MRI scan. Before each measurement session, system was calibrated using the standard internal calibrator tube (canola oil). Mice were typically scanned in sample tubes dedicated to mice comprised between 20 g and 40 g body mass. Data were collected through built-in software EchoMRI version 140320. Data were analyzed when hydration ratio >85%. MRI scans were conducted blinded to treatment groups.
Muscle function, whole-body plethysmography, echocardiography. Forelimb grip strength was monitored using a meter (Cat #1027SM; Columbus Instruments, Columbus, Ohio) blinded to treatment groups. Animals performed ten pulls with 5 seconds rest on a flat surface between pulls. Immediately before sacrifice, in situ tetanic force from tibialis anterior muscle was measured using a Whole Mouse Test System (Cat #1300A; Aurora Scientific, Aurora, ON, Canada) with a 1N dual-action lever arm force transducer (3000-LR, Aurora Scientific, Aurora, ON, Canada) in anesthetized animals (0.8 I/min of 1.5% isoflurane in 100% O2). Tetanic isometric contraction was induced with following specifications: initial delay, 0.1 sec; frequency, 200 Hz; pulse width, 0.5 msec; duration, 0.5 sec; using 100 mA stimulation (Quattrocelli et al., 2015). Length was adjusted to a fixed baseline of 50 mN resting tension for all muscles/conditions. Fatigue analysis was conducted by repeating tetanic contractions every 10 seconds until complete exhaustion of the muscle (50 cycles). Time of contraction was assessed as time to max tetanic value within the 0.0-0.5 sec range of each tetanic contraction, while time of relaxation was assessed as time to 90% min tetanic value within the 0.5-0.8 sec range of every tetanus. […] Data was recorded for a total of 15 minutes broken into 3 consecutive 5-minute periods. […] Cardiac function was assessed by echocardiography, which was conducted under anesthesia (0.8 L/min of 1.5% vaporized isoflurane in 100% O2) on mice between 2 and 5 days before sacrifice. […]

C[C@]12C=CC(=O)C=C1CC[C@@H]1[C@@H]2C(=O)C[C@@]2(C)[C@H]1CC[C@]2(O)C(=O)CO [prednisone, Prednisone]
body weight trend (Dysf-null mice): did not induce significant changes | muscle mass (Dysf-null mice): increased | performance of limb muscles, respiratory muscles, and heart (Dysf-null mice): improved | gain of hyperglycemia (fasting blood glucose over time) ([1]; weekly prednisone): reduced | lean mass retention ([1]; weekly prednisone): improved | gain of body weight and fat mass ([1]; weekly prednisone 1 mg/kg i.p., vs vehicle): slightly but significantly reduced | body-wide glucose homeostasis (glucose and insulin tolerance tests) ([1]; weekly prednisone, endpoint): improved | grip strength, tetanic force production and aerobic exercise capacity ([1]; weekly prednisone, endpoint): improved
